Measurements as given in patent US8389514B2, “Cyanoaminoquinolones and tetrazoloaminoquinolones as GSK-3 inhibitors” (Kyorin Pharmaceutical Co., Ltd., priority 2007, dated 2013).

Tests used:
S. aureus Smith = assay: Antibacterial activity (MIC), S. aureus Smith; type: cell-based; conditions: Staphylococcus aureus
Description: (§1) As used herein, a minimum inhibitory concentration (MIC) for bacterial growth assay is the lowest level of a compound needed to cause an inhibition to bacterial growth in culture medium. In certain embodiments, the antibacterial activity of compounds herein, measured as MIC.
(§2) In certain embodiments, GSK3 inhibitors provided herein are substantially free of antibacterial activity or having very low antibacterial activity. The antibacterial activity can be measured by methods known in the art by estimating a minimum inhibitory concentration (MIC) for test compounds. A MIC is the lowest level of a compound needed to cause an inhibition to bacterial growth in a culture medium. […] (Clinical and Laboratory Standards Institute. Methods for Dilution Antimicrobial Susceptibility Tests for Bacteria That Grow Aerobically; Approved Standard-Sixth Edition: CLSI document […]. CLSI, Wayne, Pa. (2003))
(§3) Antibacterial activity for E. coli, ATCC8739 and S. aures Smith is expressed as MIC (μM).

E. coli, ATCC8739 = assay: Antibacterial activity (MIC), E. coli; type: cell-based; conditions: Escherichia coli
Description: as §1, §2, §3

[1] = target: T1, recombinant full-length human GSK3β (Homo sapiens, UniProt P49841); assay: GSK3β enzyme cell free luciferase-coupled kinase assay; type: biochemical; conditions: 5 μM ATP
T1 construct: recombinant full-length human GSK3β (Upstate); purchased Upstate
Procedure: All coupled-luciferase assays are performed by using a brief incubation with firefly luciferase (Promega) after completion of the kinase assay. KinaseGlo Plus is used for reading kinase reactions with ATP>10 μM, KinaseGlo for ATP<10 μM. The assay volume in a 384-well plate for the kinase reaction is 30 microliters.
10-25 ng of recombinant full-length human GSK3β (Upstate) is incubated in the presence or absence of compound at varying concentrations for 1 hour at 30 degrees Celsius in 20 mM MOPS, pH 7.0, 10 mM magnesium acetate, 0.2 mM EDTA, 2 mM EGTA, 30 mM magnesium chloride, 62.5 μM phospho-glycogen synthase peptide-2, 5 μM ATP, 10 mM β-glycerol phosphate, 1 mM sodium orthovanadate and 1 mM dithiothreitol. Proceed to KinaseGlo luciferase reaction (see below).
Following the completion of the kinase reaction an equal volume of KinaseGlo or KinaseGlo Plus luciferase reagent (Promega) is added and the luminescence read using a luminescence plate reader within 5-10 minutes. Compound activity is expressed as % inhibition relative to maximal inhibition observed at the maximal dose and IC50 values then calculated using curve fitting software (GraphPad Prizm).

T1 sequence (P49841 whole entry): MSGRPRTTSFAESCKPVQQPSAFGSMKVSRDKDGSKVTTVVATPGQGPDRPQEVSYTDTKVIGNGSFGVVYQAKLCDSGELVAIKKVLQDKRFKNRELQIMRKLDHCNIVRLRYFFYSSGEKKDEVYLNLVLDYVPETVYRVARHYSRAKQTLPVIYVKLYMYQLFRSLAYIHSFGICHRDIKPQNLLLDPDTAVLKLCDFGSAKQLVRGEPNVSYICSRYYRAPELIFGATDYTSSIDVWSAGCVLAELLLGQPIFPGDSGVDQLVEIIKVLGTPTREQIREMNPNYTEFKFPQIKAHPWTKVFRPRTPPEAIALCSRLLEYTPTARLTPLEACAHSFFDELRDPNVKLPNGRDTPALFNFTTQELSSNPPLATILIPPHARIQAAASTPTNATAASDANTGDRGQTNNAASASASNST

IC50 [1] [nM]	Compound	MIC (S. aureus Smith) [µM]	MIC (E. coli, ATCC8739) [µM]
10 to 100	CCN(CCCNc1c(F)c(N)c2c(=O)c(-c3nnn[nH]3)cn3c2c1OC[C@@H]3C)c1ccccc1	–	–
< 10	C[C@H]1COc2c(NCCCc3ccccn3)c(F)c(N)c3c(=O)c(-c4nnn[nH]4)cn1c23	–	–

Compound	IC50 [1] [nM]	MIC (S. aureus Smith) [µM]	MIC (E. coli, ATCC8739) [µM]
C[C@H]1COc2c(NCCCn3ccnc3)c(F)c(N)c3c(=O)c(-c4nnn[nH]4)cn1c23	10 to 100	> 257	> 257
